What was measured:
Type in all cases: cell-based
[1] = tested on: Human ovarian carcinoma A2780; assay: Cytotoxicity test (sulphorodamine B), A2780; conditions: 24 h incubation, survival 48 h after removal
Description: (§1) Different cell lines deriving from solid tumors were also used. • 1. Human prostate carcinoma PC3 and DU145. These cell lines were maintained in RPMI 1640 medium containing 10% FCS, 1% sodium pyruvate and 1% glutamine; • 2. Human colon adenocarcinoma LoVo. This cell line was maintained in HAM's F-12 medium, containing 10% FCS and 1% glutamine. • 3. Human ovarian carcinoma such as A2780 and A2780/Dx, sensitive and resistant to drugs, respectively (doxorubicin, taxol, etoposide, vincristine); IGROV-1 and IGROV-1/Pt, sensitive and resistant to platinum-based chemotherapy, respectively, were maintained in RPMI 1640 medium containing 10% FCS, 1% sodium pyruvate and 1% glutamine; • 4. Human melanoma MeWo and MeS 2.21, glioblastoma GBM, no small cell lung carcinomas A431, NCI—H460, osteosarcomas SAOS and U2OS were maintained in RPMI 1640 medium containing 10% FCS, 1% sodium pyruvate and 1% glutamine.
(§2) The cytotoxicity tests were carried out using NB4 or HL-60 cells in suspension (10000/well). The cells were seeded in a volume of 250 μl in 96 well plates and incubated for 24 hours at 37° C. […] The optical density was measured using a Multiskan spectrophotometer at 540 nm. […]
(§3) Cell survival was determined by incubation with ST1926 for 24 hours, 48 hours after the removal of the compound. […]

[2] = tested on: Human ovarian carcinoma A2780/Dx (drug resistant); assay: Cytotoxicity test (sulphorodamine B), A2780/Dx; conditions: 24 h incubation, survival 48 h after removal
Description: as §1, §2, §3

[3] = tested on: Human melanoma MeS 2.21; assay: Cytotoxicity test (sulphorodamine B), MeS 2.21; conditions: 24 h incubation, survival 48 h after removal
Description: as §1, §2, §3

[4] = tested on: human prostate carcinoma PC3 cells; assay: Cyto-fluorometric cell cycle analysis, PC3; design: key to APOPTOSIS: % of cells (cell cycle phase percentages)
Protocol: To evaluate the effect of the compound according to the invention, on various phases of the cell cycle, cyto-fluorometric cell cycle analyses were performed.
On the third day of treatment 500.000 cells were sampled, centrifuged at 180×g for 5 minutes, washed twice in calcium and magnesium free PBS. The cells (1×10^6/ml of fixative) were fixed for at least 1 hour in a fixation mixture comprised of acetone/methanol 1:4 v/v maintained at −20° C. and 50% of calcium and magnesium free PBS; then the cells were centrifuged, washed in calcium and magnesium free PBS, and again centrifuged and washed. The cellular precipitate was incubated for 30 minutes in the dark at room temperature with 200 μl of […] (100 μg/ml) and 200 μl of RNAse (150 KU/mg).
The samples with filtered through nylon filters (60-80 μm diameter) and analysed by cyto-fluorimeter FACScan (Becton Dickinson), acquiring 20000 events/sample, at an excitation wavelength of 488 nm and emission wavelength of 620 nm. The analysis of the percentages of the cell cycle phases was performed using a dedicated software package, Modfit v. 2.0 (Becton Dickinson).
For the cell cycle analysis of prostate carcinoma cells PC3, the cells were seeded in plates at a density of 500000 cells/ml in RPMI medium. After treatment with compound ST1926 for 24 hours, cells were analysed as described above.

[5] = PC3, 0.02 μM, 24 hours of treatment and 0 hours of recovery
[6] = PC3, 0.02 μM, 24 hours of treatment and 24 hours of recovery
[7] = PC3, 0.05 μM, 24 hours of treatment and 0 hours of recovery
[8] = PC3, 0.05 μM, 24 hours of treatment and 24 hours of recovery
[9] = PC3, 0.1 μM, 24 hours of treatment and 0 hours of recovery
[10] = PC3, 0.1 μM, 24 hours of treatment and 24 hours of recovery
[11] = PC3, 0.2 μM, 24 hours of treatment and 24 hours of recovery

Question: For `O=C(O)/C=C/c1ccc(-c2ccc(O)c(C34CC5CC(CC(C5)C3)C4)c2)cc1` [ST1926, E-4-(3-(1-adamantyl)-4-hydroxyphenyl)cinnamic acid], which IC50 [1] is on record?
Answer: The IC50 was 0.1 µM.

Question: And the IC50 [2]?
Answer: Its IC50 is 0.2 µM.

Question: What about the IC50 [3] of the same compound?
Answer: Its IC50 is 0.23 µM.

Question: What about the APOPTOSIS [4, 5] of the same compound?
Answer: Its APOPTOSIS is 9.

Question: What about the G0/G1 [4, 5] of the same compound?
Answer: The G0/G1 was 54.0.

Question: And the “G2 + M” value [4, 5]?
Answer: The value was 21.8.

Question: What about the S [4, 5] of the same compound?
Answer: The S was 24.2.

Question: What about the APOPTOSIS [4, 6] of the same compound?
Answer: Its APOPTOSIS is 13.

Question: And the G0/G1 [4, 6]?
Answer: Its G0/G1 is 44.6.

Question: What about the “G2 + M” value [4, 6] of the same compound?
Answer: The value was 25.0.

Question: And the S [4, 6]?
Answer: Its S is 30.4.

Question: What about the APOPTOSIS [4, 7] of the same compound?
Answer: Its APOPTOSIS is 11.

Question: And the G0/G1 [4, 7]?
Answer: The G0/G1 was 55.8.

Question: What about the “G2 + M” value [4, 7] of the same compound?
Answer: The value was 20.6.

Question: What about the S [4, 7] of the same compound?
Answer: Its S is 23.6.

Question: What about the APOPTOSIS [4, 8] of the same compound?
Answer: Its APOPTOSIS is 15.

Question: What about the G0/G1 [4, 8] of the same compound?
Answer: The G0/G1 was 44.9.

Question: What about the “G2 + M” value [4, 8] of the same compound?
Answer: Its value is 25.6.

Question: And the S [4, 8]?
Answer: Its S is 29.5.

Question: What about the APOPTOSIS [4, 9] of the same compound?
Answer: The APOPTOSIS was 10.

Question: And the G0/G1 [4, 9]?
Answer: The G0/G1 was 52.0.

Question: And the “G2 + M” value [4, 9]?
Answer: The value was 28.0.

Question: And the S [4, 9]?
Answer: Its S is 35.4.

Question: And the APOPTOSIS [4, 10]?
Answer: Its APOPTOSIS is 10.

Question: And the G0/G1 [4, 10]?
Answer: Its G0/G1 is 45.8.

Question: What about the “G2 + M” value [4, 10] of the same compound?
Answer: The value was 28.4.

Question: And the S [4, 10]?
Answer: The S was 25.8.

Question: What about the APOPTOSIS ([4]; PC3, 0.2 μM, 24 hours of treatment and 0 hours of recovery) of the same compound?
Answer: Its APOPTOSIS is 13.5.

Question: What about the APOPTOSIS [4, 11] of the same compound?
Answer: The APOPTOSIS was 13.

Question: And the G0/G1 [4, 11]?
Answer: Its G0/G1 is 31.8.

Question: And the “G2 + M” value [4, 11]?
Answer: The value was 25.0.

Question: And the S [4, 11]?
Answer: The S was 43.2.

Question: And the “effect on PC3 cells at the end of treatment (in words)” value ([4]; PC3, 0.4 μM, 24 hours of treatment)?
Answer: The value was “induced apoptosis”.

Question: What about the APOPTOSIS ([4]; PC3, 0.4 μM, 24 hours of treatment and 0 hours of recovery) of the same compound?
Answer: Its APOPTOSIS is 25.

Question: What about the APOPTOSIS ([4]; PC3, 0.4 μM, 24 hours of treatment and 24 hours of recovery) of the same compound?
Answer: Its APOPTOSIS is 26.
